For one data set, the system named is Mycosphaerella fijiensis. The data set can be described thus: Contact evaluation (microtiter plate). It counts as cell-based. Set-up: key: Full: fungal inhibition was rated as full, partial, or none; Partial: fungal inhibition was rated as full, partial, or none; None: fungal inhibition was rated as full, partial, or none. The protocol:
(§1) Compound solution: Contact evaluations were conducted to determine the anti-fungal activity of each compound against Botrytis cinerea, Sclerotinia sclerotiorum, Pythium aphanidermatum, Rhizoctonia solani, Cercospora arachidicola, Mycosphaerella fijiensis, and Monilinia laxa. Five milligrams of each compound were dissolved in 0.5 milliliter of DMSO for a compound stock solution of 1.0% w/v. Compound stock solutions were serial diluted with DMSO to 20, 10, and 2 ppm final well concentration. Fungi preparation: Botrytis cinerea spores were taken from 6-week-old cultures grown at 22C on full strength potato dextrous agar (PDA) plates. Sclerotinia sclerotiorum, Pythium aphanidermatum, Rhizoctonia solani, and Monilinia laxa mycelia were taken from 4- to 10-day-old shake flask cultures grown at room temperature on full strength potato dextrous broth (PDB). Cercospora arachidicola mycelia were taken from 10- to 14-day-old shake flask cultures grown at room temperature on a full strength PDB amended with peanut oil. Mycosphaerella fijiensis mycelia were taken from 10- to 14-day-old shake flask cultures grown at room temperature on V8 juice broth. Sclerotinia sclerotiorum, Pythium aphanidermatum, Rhizoctonia solani, Cercospora arachidicola, and Mycosphaerella fijiensis mycelia (0.4 g mycelia) were blended for 45 seconds in 20 mL sterile de-ionized water. Monilinia laxa mycelia (1 g mycelia) was blended for 45 seconds in 30 mL of sterile de-ionized water. Botrytis cinerea spores were diluted with quarter strength PDB to 1×10^5 spores/mL final well concentration. All mycelia were diluted in water (1:5 mycelia:water) before distributing into the wells. Microtiter plate preparation: Compound solution (10:L), quarter strength PDB (900:L) and fungi preparation (100:L) were sequentially distributed into 48-well microtiter plates (n=3 replications/compound/rate). A blank consisted of quarter strength PDB and fungi preparation. Commercial fungicide controls (100 ppm diluted with water) consisted of Scala for Botrytis cinerea, Dithane F-45 for Mycosphaerella fijiensis, and Benlate for Sclerotinia sclerotiorum, Pythium aphanidermatum, Rhizoctonia solani, Cercospora arachidicola, and Monilinia laxa. Plates were shaken in a circular rotator at room temperature for 20 minutes, then incubated at 25C for 24 to 72 hours, depending on the pathogen. Fungal control ratings: Fungal growth in wells containing the compounds were compared to the positive control and fungal inhibition was rated as full, partial, or none. Final readings were the average of the three wells (Table 1).

The next data set relates to Monilinia laxa. Nature of the data set: Contact evaluation (microtiter plate). Set-up: key: Full: fungal inhibition was rated as full, partial, or none; Partial: fungal inhibition was rated as full, partial, or none; None: fungal inhibition was rated as full, partial, or none. The format is cell-based. Here is the method:
as §1

The next data set deals with Pythium aphanidermatum. Nature of the data set: Contact evaluation (microtiter plate). It counts as cell-based. The arrangement: key: Full: fungal inhibition was rated as full, partial, or none; Partial: fungal inhibition was rated as full, partial, or none; None: fungal inhibition was rated as full, partial, or none. Here is the method: as §1
For a further data set, the system named is Sclerotinia sclerotiorum. Nature of the data set: Contact evaluation (microtiter plate). The note with it: Sclerotinia sclerotionum. It counts as cell-based. Set-up: key: Full: fungal inhibition was rated as full, partial, or none; Partial: fungal inhibition was rated as full, partial, or none; None: fungal inhibition was rated as full, partial, or none. The protocol: as §1

The next data set deals with Cercospora arachidicola. Nature of the data set: Contact evaluation (microtiter plate). It counts as cell-based. Set-up: key: Full: fungal inhibition was rated as full, partial, or none; Partial: fungal inhibition was rated as full, partial, or none; None: fungal inhibition was rated as full, partial, or none. Here is the method:
as §1

Data set [1] deals with Botrytis cinerea. Nature of the data set: Contact evaluation (microtiter plate). It counts as cell-based. Set-up: key: Full: fungal inhibition was rated as full, partial, or none; Partial: fungal inhibition was rated as full, partial, or none; None: fungal inhibition was rated as full, partial, or none. Here is the method: as §1
For the next data set, the system named is Rhizoctonia solani. Nature of the data set: Contact evaluation (microtiter plate). The format is cell-based. Set-up: key: Full: fungal inhibition was rated as full, partial, or none; Partial: fungal inhibition was rated as full, partial, or none; None: fungal inhibition was rated as full, partial, or none. The conditions noted are these: Rhizoctinia solani. The protocol:
as §1

In data set [2] the test system is Phaseolus vulgaris (Bush bean cv. Blue Lake 274). Nature of the data set: Detached bean leaf bioassay, phytotoxicity rating. It counts as in vivo. The protocol:
Compound solution: Compound solutions were prepared by diluting compound stock solutions (1.0% w/v compound in DMSO) to 200 ppm with 0.01% w/v Triton X-100. Plant material: Middle trifoliate leaves of greenhouse grown Phaseolus vulgaris (Bush bean cv. Blue Lake 274) were excised and placed on a plastic grid above a tray containing moist towels. Treatment method: One half of the adaxial surface of the leaf was treated with the compound solution (100:L) using a 3 cm Bacti Cell Spreader. A blank consisted of 0.01% w/v Triton X-100. A commercial fungicide control (200 ppm diluted with water) consisted of Scala. After the solutions dried, the trays containing the leaves were covered and held one day in a growth chamber (22C). The adaxial surfaces of the leaves were then inoculated with 5–60:L droplets of Botrytis cinerea spore solution. Phytotoxicity ratings: Phytotoxicity was rated as 0=no phytotoxicity, 1=slight phytotoxicity, 2=moderate phytotoxicity, or 3=excessive phytotoxicity (Table 2).

For data set [3], the system named is Botrytis cinerea. Nature of the data set: Detached bean leaf bioassay, fungal control. It counts as in vivo. The conditions noted are these: detached bean leaf (Phaseolus vulgaris), three days after inoculation, 100 minus percent necrotic area. The protocol: Compound solution: Compound solutions were prepared by diluting compound stock solutions (1.0% w/v compound in DMSO) to 200 ppm with 0.01% w/v Triton X-100.
Spore solution preparation: Botrytis cinerea spores were taken from 6-week-old cultures grown at 22C on full strength potato dextrous agar (PDA) plates and harvested in 1:16 frozen orange juice concentrate:water. Botrytis cinerea spore solutions were prepared by diluting spore cultures to 5×10^4 spores/mL with 1:16 frozen orange juice concentrate:water.
Plant material: Middle trifoliate leaves of greenhouse grown Phaseolus vulgaris (Bush bean cv. Blue Lake 274) were excised and placed on a plastic grid above a tray containing moist towels.
Treatment method: One half of the adaxial surface of the leaf was treated with the compound solution (100:L) using a 3 cm Bacti Cell Spreader. A blank consisted of 0.01% w/v Triton X-100. A commercial fungicide control (200 ppm diluted with water) consisted of Scala. […]
Fungal control rating: Three days after inoculation with Botrytis, the percent necrotic area under the inoculation droplet was determined. Since the areas under the blank (0.01% w/v Triton X-100) were 100% infected, fungal control was expressed as 100 minus the percent necrotic area, and thus 0% infected is 100% fungal control (n=3 leaves/compound, 5 inoculation droplets/leaf, Table 2).

The structures appear in SMILES notation.

On to `C/C1=C\C=C\CCC(C)CNC(=O)/C=C/C=C/C(C)C(O)C/C=C(\C)C1` (centres unmarked) [formula I], for which the “Control of fungi (full, partial, none)” value in the data set with Mycosphaerella fijiensis (fungicide rate 2 ppm), with Mycosphaerella fijiensis (fungicide rate 10 ppm), in the data set on Mycosphaerella fijiensis (fungicide rate 20 ppm), with Monilinia laxa (fungicide rate 2 ppm), in the data set on Monilinia laxa (fungicide rate 10 ppm) and in the data set with Monilinia laxa (fungicide rate 20 ppm) was “Full” each time. The “Control of fungi (full, partial, none)” value with Pythium aphanidermatum (fungicide rate 2 ppm), in the data set with Pythium aphanidermatum (fungicide rate 10 ppm), in the data set with Pythium aphanidermatum (fungicide rate 20 ppm), with Sclerotinia sclerotiorum (fungicide rate 2 ppm), in the data set with Sclerotinia sclerotiorum (fungicide rate 10 ppm) and in the data set with Sclerotinia sclerotiorum (fungicide rate 20 ppm) was “Full” in each case. For the same compound, the “Control of fungi (full, partial, none)” value in the data set on Cercospora arachidicola (fungicide rate 2 ppm), in the data set on Cercospora arachidicola (fungicide rate 10 ppm), with Cercospora arachidicola (fungicide rate 20 ppm), with Botrytis cinerea [1] (fungicide rate 2 ppm), in the data set on Botrytis cinerea [1] (fungicide rate 10 ppm) and in the data set on Botrytis cinerea [1] (fungicide rate 20 ppm) was “Full” in each case. For the same compound, the “Control of fungi (full, partial, none)” value in the data set on Rhizoctonia solani (fungicide rate 2 ppm), with Rhizoctonia solani (fungicide rate 10 ppm) and in the data set with Rhizoctonia solani (fungicide rate 20 ppm) was “Full” in each case. Further, the “Phytotoxity (200 ppm)” value in data set [2] was “None”. Besides, the “Botrytis cinerea control (200 ppm)” value with Botrytis cinerea [3] is 31%.

The record behind these values is patent US7276493B2, “Fungicide for treating plants” (Valent BioSciences Corporation, priority 2003, dated 2007).
